Assay results reported in PubChem BioAssay (NCI).
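Exposure lasted 48 hours, with cells grown in 96-well plates and compounds tested at five concentrations. GI50: concentration for 50% inhibition of growth. Definition used: TGI = concentration required for complete inhibition of growth.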

Tests used:
Test in all cases: NCI-60 cell line screen, 48 h
[1] = tested on: SK-MEL-28 melanoma
[2] = tested on: MOLT-4 leukemia
[3] = tested on: SN12C renal
[4] = tested on: OVCAR-5 ovarian
[5] = tested on: SK-MEL-2 melanoma
[6] = tested on: SF-295 CNS
[7] = tested on: HOP-92 NSCLC
[8] = tested on: HCT-15 colon
[9] = tested on: HS 578T breast
[10] = tested on: PC-3 prostate
[11] = tested on: UACC-62 melanoma
[12] = tested on: DU-145 prostate
[13] = tested on: MDA-MB-468 breast
[14] = tested on: UACC-257 melanoma
[15] = tested on: HCC-2998 colon
[16] = tested on: COLO 205 colon
[17] = tested on: HOP-62 NSCLC
[18] = tested on: HL-60(TB) leukemia
[19] = tested on: 786-0 renal
[20] = tested on: BT-549 breast
[21] = tested on: EKVX NSCLC
[22] = tested on: IGROV1 ovarian
[23] = tested on: MDA-MB-231 breast
[24] = tested on: LOX IMVI melanoma
[25] = tested on: MALME-3M melanoma
[26] = tested on: U251 CNS
[27] = tested on: T-47D breast
[28] = tested on: K-562 leukemia
[29] = tested on: OVCAR-4 ovarian
[30] = tested on: SNB-19 CNS

SMILES: Oc1ccc(Cl)c(Nc2ncnc3c2cnn3CC(Cl)c2ccc(Br)cc2)c1 (centres undefined)
- GI50 [1]: 14.9 µM
- TGI [1]: 28.9 µM
- GI50 [2]: 6.75 µM
- TGI [2]: 37.7 µM
- GI50 [3]: 3.79 µM
- TGI [3]: 18.1 µM
- GI50 [4]: 10.3 µM
- TGI [4]: 24.4 µM
- GI50 [5]: 17.5 µM
- TGI [5]: 34.3 µM
- GI50 [6]: 6.2 µM
- TGI [6]: 27.3 µM
- GI50 [7]: 2.34 µM
- TGI [7]: 12.4 µM
- GI50 [8]: 4.57 µM
- TGI [8]: 19.4 µM
- GI50 [9]: 1.13 µM
- TGI [9]: 7.95 µM
- GI50 [10]: 4.53 µM
- TGI [10]: 35.4 µM
- GI50 [11]: 12.6 µM
- TGI [11]: 25.2 µM
- GI50 [12]: 10.6 µM
- TGI [12]: 32 µM
- GI50 [13]: 3.35 µM
- TGI [13]: 16.3 µM
- GI50 [14]: 13.8 µM
- TGI [14]: 28.3 µM
- GI50 [15]: 14.9 µM
- TGI [15]: 29.1 µM
- GI50 [16]: 17.7 µM
- TGI [16]: 38.7 µM
- GI50 [17]: 11.7 µM
- TGI [17]: 30.5 µM
- GI50 [18]: 23.2 µM
- TGI [18]: 62.2 µM
- GI50 [19]: 5.7 µM
- TGI [19]: 23.3 µM
- GI50 [20]: 12.7 µM
- TGI [20]: 25.4 µM
- GI50 [21]: 11.9 µM
- TGI [21]: 34.6 µM
- GI50 [22]: 2.39 µM
- TGI [22]: 8.31 µM
- GI50 [23]: 7.29 µM
- TGI [23]: 21 µM
- GI50 [24]: 2.09 µM
- TGI [24]: 11.8 µM
- GI50 [25]: 12.3 µM
- TGI [25]: 25.1 µM
- GI50 [26]: 11.3 µM
- TGI [26]: 25.5 µM
- GI50 [27]: 4.48 µM
- TGI [27]: 55.4 µM
- GI50 [28]: 0.0826 µM
- TGI [28]: 12.9 µM
- GI50 [29]: 13.1 µM
- TGI [29]: 54.4 µM
- GI50 [30]: 12.4 µM
